{"source": "patent US4100346A", "about": "“Certain 7(o-amino-methyl- or methylaminomethylphenyl- or cyclohexadienyl- or thienylacetamide)-3[1-carboxymethyl-(or ethyl- or propyl-)-tetrazol-5-ylthiomethyl]-3-cephem-4-carboxylic acids” (Bristol-Myers Company, priority 1976, dated 1978)", "key": {"[1]": {"system": "β-lactamase Class II Type a, Proteus mirabilis 1266", "format": "biochemical", "experimental": "(§1) Miscellaneous. Methods for determining bactericidal activity and susceptibility to cell-free β-lactamase were those previously used; Leitner et al., BL-S640, A Cephalosporin With a Broad Spectrum of Antibacterial Activity: Properties in vitro, Antimicrob. Agents Chemother.\n(§2) Susceptibility to β-lactamase. Susceptibility to enzymic hydrolysis was assessed by determining relative rates of hydrolysis by cell-free preparations of various β-lactamases (Table 6)."}, "[2]": {"system": "β-lactamase Class IV Type a, Klebsiella pneumoniae 53", "format": "biochemical", "experimental": "as §1, §2"}, "[3]": {"system": "β-lactamase Class IV Type b, Klebsiella pneumoniae 1169", "format": "biochemical", "experimental": "as §1, §2"}, "[4]": {"target": "β-lactamase Class I Type a, Enterobacter cloacae 214 (Enterobacter cloacae, UniProt P05364)", "sequence (P05364 21-381)": "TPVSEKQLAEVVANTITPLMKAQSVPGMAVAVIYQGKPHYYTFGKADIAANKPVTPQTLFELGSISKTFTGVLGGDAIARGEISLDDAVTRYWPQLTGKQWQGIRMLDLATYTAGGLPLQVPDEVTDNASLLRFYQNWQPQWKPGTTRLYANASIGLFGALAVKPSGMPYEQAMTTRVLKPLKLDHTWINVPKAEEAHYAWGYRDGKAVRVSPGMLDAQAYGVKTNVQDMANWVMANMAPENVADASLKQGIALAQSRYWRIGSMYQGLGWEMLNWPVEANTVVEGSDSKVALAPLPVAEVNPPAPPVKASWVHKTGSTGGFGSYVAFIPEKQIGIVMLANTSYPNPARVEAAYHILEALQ", "format": "biochemical", "experimental": "as §1, §2"}, "[5]": {"target": "β-lactamase Class I Type b, Escherichia coli 719 (Escherichia coli, UniProt P00811)", "sequence (P00811 20-377)": "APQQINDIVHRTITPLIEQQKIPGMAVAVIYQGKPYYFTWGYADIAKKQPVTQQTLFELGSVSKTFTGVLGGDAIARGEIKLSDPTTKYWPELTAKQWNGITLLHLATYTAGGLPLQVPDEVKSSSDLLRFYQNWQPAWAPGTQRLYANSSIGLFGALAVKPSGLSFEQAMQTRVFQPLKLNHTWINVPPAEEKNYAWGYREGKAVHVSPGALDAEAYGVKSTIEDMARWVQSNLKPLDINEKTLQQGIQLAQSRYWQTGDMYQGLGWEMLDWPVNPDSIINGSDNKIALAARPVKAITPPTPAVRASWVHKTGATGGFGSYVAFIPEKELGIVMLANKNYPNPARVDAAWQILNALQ", "format": "biochemical", "experimental": "as §1, §2"}, "[6]": {"target": "T1, β-lactamase Class III Type a, Escherichia coli TEM (Escherichia coli, UniProt P62593)", "T1 construct": "cell-free preparations of various β-lactamases; endogenous in cells; host or cells: Escherichia coli strain TEM", "T1 sequence (P62593 24-286 limits assumed)": "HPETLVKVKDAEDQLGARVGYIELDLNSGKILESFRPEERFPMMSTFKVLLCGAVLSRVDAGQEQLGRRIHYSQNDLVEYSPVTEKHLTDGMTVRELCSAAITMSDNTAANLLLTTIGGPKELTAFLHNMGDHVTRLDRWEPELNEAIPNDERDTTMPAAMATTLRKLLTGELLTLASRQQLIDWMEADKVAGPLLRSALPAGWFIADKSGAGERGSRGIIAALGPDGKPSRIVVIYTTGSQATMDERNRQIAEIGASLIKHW", "format": "biochemical", "experimental": "as §1, §2"}, "Citrobacter sp.": {"system": "Citrobacter sp.", "assay": "Growth inhibitory activity, antibiotic dilution technique"}, "Pasteurella multocida": {"system": "Pasteurella multocida", "assay": "Growth inhibitory activity, antibiotic dilution technique", "details": "read-out: Minimum inhibitory concentration"}, "Enterobacter aerogenes": {"system": "Enterobacter aerogenes", "assay": "Effect of inoculum size on susceptibility of Enterobacteriaceae", "details": "Klebsiella aerogenes, read-out: Minimum Inhibitory Concentration, Enterobacter aerogenes strain 1"}, "Neisseria gonorrhoeae": {"system": "Neisseria gonorrhoeae", "assay": "Growth inhibitory activity, antibiotic dilution technique"}, "S. pyogenes [7]": {"system": "S. pyogenes", "assay": "Growth inhibitory activity, antibiotic dilution technique", "details": "Streptococcus pyogenes, read-out: concentration inhibiting all strains"}, "Enterobacter cloacae": {"system": "Enterobacter cloacae", "assay": "Intramuscular treatment of systemically infected mice", "format": "in vivo", "details": "mice, intramuscular; compared with control cephalosporins", "from_the_text": "Treatment of Systemically Infected Mice. The procedures were identical with those published previously [Leitner et al., BL-S640, a Cephalosporin With a Broad Spectrum of Antibacterial Activity: Bioavailability and Therapeutic Properties in Rodents, Antimicrob. Agents Chemother.\n(a) the hog gastric mucin used in infections with Staphylococcus aureus No. 2 was purchased from American Laboratories, Inc., Omaha, Neb."}, "Klebsiella pneumoniae": {"system": "Klebsiella pneumoniae", "assay": "Effect of inoculum size on susceptibility of Enterobacteriaceae"}, "S. aureus": {"system": "S. aureus", "assay": "MIC by Tube Dilution Technique in Nutrient Broth (Example 9 table)", "format": "cell-based", "details": "Staphylococcus aureus", "from_the_text": "(§3) MIC (mcg./ml.) by Tube Dilution Technique in Nutrient Broth."}, "S. pyogenes [8]": {"system": "S. pyogenes", "assay": "MIC by Tube Dilution Technique in Nutrient Broth (Example 9 table)", "format": "cell-based", "details": "Streptococcus pyogenes; Sp-3 S. pyogenes A9604", "from_the_text": "as §3"}, "P. morganii": {"system": "P. morganii", "assay": "MIC by Tube Dilution Technique in Nutrient Broth (Example 9 table)", "format": "cell-based", "details": "Morganella morganii; Pg-8 P. morganii A15153", "from_the_text": "as §3"}, "S. enteritidis": {"system": "S. enteritidis", "assay": "MIC by Tube Dilution Technique in Nutrient Broth (Example 9 table)", "format": "cell-based", "details": "Salmonella enterica; Se-1 S. enteritidis A9531", "from_the_text": "as §3"}, "D. pneumoniae": {"system": "D. pneumoniae", "assay": "MIC by Tube Dilution Technique in Nutrient Broth (Example 9 table)", "format": "cell-based", "details": "Streptococcus pneumoniae; Dp-4 D. pneumoniae A9585", "from_the_text": "as §3"}, "P. aeruginosa": {"system": "P. aeruginosa", "assay": "MIC by Tube Dilution Technique in Nutrient Broth (Example 9 table)", "format": "cell-based", "details": "Pseudomonas aeruginosa; P. aeruginosa A9843", "from_the_text": "as §3"}, "K. pneumoniae": {"system": "K. pneumoniae", "assay": "MIC by Tube Dilution Technique in Nutrient Broth (Example 9 table)", "format": "cell-based", "details": "Klebsiella pneumoniae", "from_the_text": "as §3"}, "P. mirabilis": {"system": "P. mirabilis", "assay": "MIC by Tube Dilution Technique in Nutrient Broth (Example 9 table)", "format": "cell-based", "details": "Proteus mirabilis; Pm-2 P. mirabilis A9900", "from_the_text": "as §3"}, "E. coli": {"system": "E. coli", "assay": "MIC by Tube Dilution Technique in Nutrient Broth (Example 9 table)", "format": "cell-based", "details": "Escherichia coli", "from_the_text": "as §3"}, "S. marcescens": {"system": "S. marcescens", "assay": "MIC by Tube Dilution Technique in Nutrient Broth (Example 9 table)", "format": "cell-based", "details": "Serratia marcescens; Sm-1 S. marcescens A20019", "from_the_text": "as §3"}, "[9]": {"system": "Bordetella bronchiseptica", "assay": "Growth inhibitory activity, antibiotic dilution technique", "details": "read-out: Minimum inhibitory concentration"}, "Bacteroides Fragilis": {"system": "Bacteroides Fragilis", "assay": "Growth inhibitory activity, antibiotic dilution technique (obligate anaerobes)", "format": "cell-based", "details": "3 strains, geometric mean when applicable, read-out: Minimum inhibitory concentration", "experimental": "Antibiotic spectrum. […] Procedures were as follows:\nc. Obligate anaerobes. The assay was performed on solid medium, consisting of Brain Heart Infusion Broth (BBL) supplemented with 5% defibrinated sheep blood and 1% Ionagar (Colab). […] The plates were incubated at 37° C. for 48 hours under the oxygen-free conditions attained with a Gas-Pak (BBL) Brewer jar system."}, "Proteus vulgaris": {"system": "Proteus vulgaris", "assay": "Effect of inoculum size on susceptibility of Enterobacteriaceae"}, "Erwinia sp.": {"system": "Erwinia sp.", "assay": "Growth inhibitory activity, antibiotic dilution technique", "details": "read-out: Minimum inhibitory concentration"}}, "note": "Like-named read-outs stand apart in the source and are kept apart here."}
{"smiles": "NCc1ccccc1CC(=O)N[C@@H]1C(=O)N2C(C(=O)O)=C(CSc3nnnn3CC(=O)O)CS[C@H]12", "note": "[Example 1]", "values": [{"measurement": "Relative Rate of Hydrolysis (benzylpenicillin = 100)", "setting": "[1]", "result": "< 1"}, {"measurement": "Relative Rate of Hydrolysis (benzylpenicillin = 100)", "setting": "[2]", "result": 6}, {"measurement": "Relative Rate of Hydrolysis (benzylpenicillin = 100)", "setting": "[3]", "result": 30}, {"measurement": "Relative Rate of Hydrolysis (benzylpenicillin = 100)", "setting": "[4]", "result": 1100}, {"measurement": "Relative Rate of Hydrolysis (benzylpenicillin = 100)", "setting": "[5]", "result": 190}, {"measurement": "Relative Rate of Hydrolysis (benzylpenicillin = 100)", "setting": "[6]", "result": 2}, {"measurement": "MIC", "setting": "Citrobacter sp.; read-out: Minimum inhibitory concentration", "result": 1, "unit": "µg/mL"}, {"measurement": "MIC", "setting": "Citrobacter sp.; read-out: Minimum inhibitory concentration, Citrobacter sp., 1 strain", "result": 125, "unit": "µg/mL"}, {"measurement": "MIC", "setting": "Pasteurella multocida", "result": 0.25, "unit": "µg/mL"}, {"measurement": "MIC", "setting": "Enterobacter aerogenes; A, Inoculum of 10^2 organisms", "result": 1, "unit": "µg/mL"}, {"measurement": "MIC", "setting": "Enterobacter aerogenes; B, Inoculum of 10^6 organisms", "result": "> 250", "unit": "µg/mL"}, {"measurement": "susceptibility of Neisseria gonorrhoeae", "setting": "Neisseria gonorrhoeae", "result": "equally susceptible"}, {"measurement": "MIC", "setting": "S. pyogenes [7]", "result": 0.5, "unit": "µg/mL"}, {"measurement": "efficacy against infections with Enterobacter cloacae", "setting": "Enterobacter cloacae", "result": "alone was effective"}, {"measurement": "MIC", "setting": "Klebsiella pneumoniae; read-out: Minimum Inhibitory Concentration, Klebsiella pneumoniae strain 1, A, Inoculum of 10^2 organisms", "result": 0.5, "unit": "µg/mL"}, {"measurement": "MIC", "setting": "Klebsiella pneumoniae; read-out: Minimum Inhibitory Concentration, Klebsiella pneumoniae strain 1, B, Inoculum of 10^6 organisms", "result": 1, "unit": "µg/mL"}, {"measurement": "MIC", "setting": "Klebsiella pneumoniae; read-out: Minimum Inhibitory Concentration, Klebsiella pneumoniae strain 2, A, Inoculum of 10^2 organisms", "result": 0.25, "unit": "µg/mL"}, {"measurement": "MIC", "setting": "Klebsiella pneumoniae; read-out: Minimum Inhibitory Concentration, Klebsiella pneumoniae strain 2, B, Inoculum of 10^6 organisms", "result": 2, "unit": "µg/mL"}, {"measurement": "MIC", "setting": "Klebsiella pneumoniae; read-out: Minimum Inhibitory Concentration, Klebsiella pneumoniae strain 3, A, Inoculum of 10^2 organisms", "result": 0.5, "unit": "µg/mL"}, {"measurement": "MIC", "setting": "Klebsiella pneumoniae; read-out: Minimum Inhibitory Concentration, Klebsiella pneumoniae strain 3, B, Inoculum of 10^6 organisms", "result": 4, "unit": "µg/mL"}, {"measurement": "MIC", "setting": "Klebsiella pneumoniae; read-out: Minimum Inhibitory Concentration, Klebsiella pneumoniae strain 4, A, Inoculum of 10^2 organisms", "result": 0.5, "unit": "µg/mL"}, {"measurement": "MIC", "setting": "Klebsiella pneumoniae; read-out: Minimum Inhibitory Concentration, Klebsiella pneumoniae strain 4, B, Inoculum of 10^6 organisms", "result": 4, "unit": "µg/mL"}, {"measurement": "MIC", "setting": "Klebsiella pneumoniae; read-out: Minimum Inhibitory Concentration, Klebsiella pneumoniae strain 5, A, Inoculum of 10^2 organisms", "result": 0.5, "unit": "µg/mL"}, {"measurement": "MIC", "setting": "Klebsiella pneumoniae; read-out: Minimum Inhibitory Concentration, Klebsiella pneumoniae strain 5, B, Inoculum of 10^6 organisms", "result": 2, "unit": "µg/mL"}, {"measurement": "MIC", "setting": "Klebsiella pneumoniae; read-out: Minimum Inhibitory Concentration, Klebsiella pneumoniae strain 6, A, Inoculum of 10^2 organisms", "result": 0.25, "unit": "µg/mL"}, {"measurement": "MIC", "setting": "Klebsiella pneumoniae; read-out: Minimum Inhibitory Concentration, Klebsiella pneumoniae strain 6, B, Inoculum of 10^6 organisms", "result": 4, "unit": "µg/mL"}, {"measurement": "MIC", "setting": "S. aureus; Sa-2 S. aureus +50% serum", "result": "> 3.1", "unit": "µg/mL"}, {"measurement": "MIC", "setting": "S. aureus; Sa-2 S. aureus Smith A9537", "result": 3.1, "unit": "µg/mL"}, {"measurement": "MIC", "setting": "S. aureus; Sa-11 S. aureus BX-1633 A9606", "result": 3.1, "unit": "µg/mL"}, {"measurement": "MIC", "setting": "S. aureus; Sa-44 S. aureus A15097", "result": 6.3, "unit": "µg/mL"}, {"measurement": "MIC", "setting": "S. pyogenes [8]", "result": 0.16, "unit": "µg/mL"}, {"measurement": "MIC", "setting": "P. morganii", "result": 6.3, "unit": "µg/mL"}, {"measurement": "MIC", "setting": "S. enteritidis", "result": 0.2, "unit": "µg/mL"}, {"measurement": "MIC", "setting": "D. pneumoniae", "result": 0.16, "unit": "µg/mL"}, {"measurement": "MIC", "setting": "P. aeruginosa", "result": "> 100", "unit": "µg/mL"}, {"measurement": "MIC", "setting": "K. pneumoniae; Kp-3 K. pneumoniae A9977", "result": 0.2, "unit": "µg/mL"}, {"measurement": "MIC", "setting": "K. pneumoniae; Kp-4 K. pneumoniae A15130", "result": 1.6, "unit": "µg/mL"}, {"measurement": "MIC", "setting": "P. mirabilis", "result": 0.4, "unit": "µg/mL"}, {"measurement": "MIC", "setting": "E. coli; Ec-1 E. coli NIHJ", "result": 0.8, "unit": "µg/mL"}, {"measurement": "MIC", "setting": "E. coli; Ec-3 E. coli Juhl A15119", "result": 0.8, "unit": "µg/mL"}, {"measurement": "MIC", "setting": "E. coli; Ec-58 E. coli A9675", "result": 6.3, "unit": "µg/mL"}, {"measurement": "MIC", "setting": "S. marcescens", "result": "> 100", "unit": "µg/mL"}, {"measurement": "MIC", "setting": "[9]", "result": 125, "unit": "µg/mL"}, {"measurement": "MIC", "setting": "Bacteroides Fragilis", "result": 100, "unit": "µg/mL"}, {"measurement": "MIC", "setting": "Proteus vulgaris; read-out: Minimum Inhibitory Concentration, Proteus vulgaris strain 1, A, Inoculum of 10^2 organisms", "result": 1, "unit": "µg/mL"}, {"measurement": "MIC", "setting": "Proteus vulgaris; read-out: Minimum Inhibitory Concentration, Proteus vulgaris strain 1, B, Inoculum of 10^6 organisms", "result": 4, "unit": "µg/mL"}, {"measurement": "MIC", "setting": "Proteus vulgaris; read-out: Minimum Inhibitory Concentration, Proteus vulgaris strain 2, A, Inoculum of 10^2 organisms", "result": 1, "unit": "µg/mL"}, {"measurement": "MIC", "setting": "Proteus vulgaris; read-out: Minimum Inhibitory Concentration, Proteus vulgaris strain 2, B, Inoculum of 10^6 organisms", "result": 8, "unit": "µg/mL"}, {"measurement": "MIC", "setting": "Proteus vulgaris; read-out: Minimum Inhibitory Concentration, Proteus vulgaris strain 4, A, Inoculum of 10^2 organisms", "result": 1, "unit": "µg/mL"}, {"measurement": "MIC", "setting": "Proteus vulgaris; read-out: Minimum Inhibitory Concentration, Proteus vulgaris strain 4, B, Inoculum of 10^6 organisms", "result": 8, "unit": "µg/mL"}, {"measurement": "MIC", "setting": "Erwinia sp.", "result": 0.66, "unit": "µg/mL"}]}
